Assay results taken from US9029553B2, “2-anilino nicotinyl linked 2-amino benzothiazole conjugates and process for the preparation thereof” (Council of Scientific & Industrial Research, priority 2011, dated 2015).

What was measured:
HL-60 cells [1] = assay: Cell cycle analysis (FACS) by flow cytometry; assay type: cell-based, human; conditions: 1 μM, up to 24 h
Excerpt: The damage was more apparent with compound 8 and 6 (90% and 60% DNA damaged, respectively).

[2] = tested on: caspase-3, caspase-8, caspase-9 activity in HL-60 Cells; assay: Caspases induction; assay type: cell-based, human; conditions: 1 μM, 24 h
Excerpt: So activation of caspases by compound 8 indicate that it induce apoptosis through both the intrinsic as well as extrinsic apoptotic pathway in HL-60 cells.

HL-60 cells [3] = assay: Loss of mitochondrial membrane potential (Rh-123 uptake); assay type: cell-based, human; conditions: 1 μM, 48 h
Protocol: Rhodamine-123 uptake into mitochondria is driven by mitochondrial Transmembrane potential (Ψmt) that allows the determination of cell population with active integrated mitochondrial functions. Loss of Ψmt leads to depolarization of mitochondrial membranes leading to collapse of mitochondrial functions ensuing cell death. The loss of Ψmt indicated the loss of mitochondrial integrity to couple electrons to energy production. HL-60 cells exposed to tested compounds for 48 h at 1 μM were analyzed for Rh-123 uptake by flow cytometry. The percentage of cells with low Rh-123 quantum fluorescence indicative of loss of Ψmt was calculated among the total acquired cell events (10,000). In the untreated control cells, more than 90% cells were functionally active with high Rh-123 signals (FIG. 9).

SK-NS-H = assay: SRB percentage growth inhibition (NCI protocol); assay type: cell-based; conditions: Homo sapiens, SK-N-SH, 48 hrs exposure
Protocol: (§1) 2-Anilino nicotinyl linked 2-amino benzothiazoles conjugates of formula 4-8 have been tested against ten and eleven human cancer cell lines for 10 and 1 μM respectively derived from nine cancer types (leukemia, non-small cell lung cancer, colon cancer, CNS cancer, melanoma, ovarian cancer, renal cancer, prostate cancer and breast cancer) as per NCI protocol. For each compound, percentage of growth inhibition was calculated for individual cell lines at a minimum of two concentrations (1 and 10 μM). A protocol of 48 hrs continuous drug exposure was used, and a sulforhodamine B (SRB) protein assay was used to estimate cell viability or growth. The percentage of growth inhibition compared with the control was calculated in table 1 and table 2.

MCF-7 = assay: SRB percentage growth inhibition (NCI protocol); assay type: cell-based; conditions: Homo sapiens, MCF7, 48 hrs exposure
Protocol: as §1

IMR-32 = assay: SRB percentage growth inhibition (NCI protocol); assay type: cell-based; conditions: Homo sapiens, 48 hrs exposure
Protocol: as §1

HCT-15 = assay: SRB percentage growth inhibition (NCI protocol); assay type: cell-based; conditions: Homo sapiens, 10 μM, 48 hrs exposure
Protocol: as §1

OVCAR-5 = assay: SRB percentage growth inhibition (NCI protocol); assay type: cell-based; conditions: Homo sapiens, 48 hrs exposure
Protocol: as §1

502713 = assay: SRB percentage growth inhibition (NCI protocol); assay type: cell-based; conditions: Homo sapiens, 48 hrs exposure
Protocol: as §1

SiHa = assay: SRB percentage growth inhibition (NCI protocol); assay type: cell-based; conditions: Homo sapiens, 48 hrs exposure
Protocol: as §1

A549 = assay: SRB percentage growth inhibition (NCI protocol); assay type: cell-based; conditions: Homo sapiens, 48 hrs exposure
Protocol: as §1

DU145 = assay: SRB percentage growth inhibition (NCI protocol); assay type: cell-based; conditions: Homo sapiens, DU-145, 48 hrs exposure
Protocol: as §1

IGR-OV-1 = assay: SRB percentage growth inhibition (NCI protocol); assay type: cell-based; conditions: Homo sapiens, IGROV-1, 48 hrs exposure
Protocol: as §1

PC-3 = assay: SRB percentage growth inhibition (NCI protocol); assay type: cell-based; conditions: Homo sapiens, 48 hrs exposure
Protocol: as §1

Sw-620 = assay: SRB percentage growth inhibition (NCI protocol); assay type: cell-based; conditions: Homo sapiens, 48 hrs exposure
Protocol: as §1

HEP-2 = assay: SRB percentage growth inhibition (NCI protocol); assay type: cell-based; conditions: Homo sapiens, 48 hrs exposure
Protocol: as §1

O=C(Nc1nc2ccc([N+](=O)[O-])cc2s1)c1cccnc1Nc1cc(F)c(F)c(F)c1 [Compound 8, N3-(6-nitro-1,3-benzothiazol-2-yl)-2-[(3,4,5-trifluorophenyl)amino]-3-pyridine carboxamide]
DNA damaged (sub-G0 fraction) (HL-60 cells [1]): 90% | activation of caspases-3,-8,-9 activities [2]: 2-3 folds | loss of mitochondrial membrane potential (HL-60 cells [3]): 45% | inhibition at 10 µM (SK-NS-H): 49% | inhibition at 1 µM (MCF-7): 46% | inhibition at 1 µM (IMR-32; 1 μM): 48% | inhibition at 10 µM (IMR-32; 10 μM): 72% | inhibition at 10 µM (HCT-15): 62% | inhibition at 1 µM (OVCAR-5; 1 μM): 37% | inhibition at 10 µM (OVCAR-5; 10 μM): 52% | inhibition at 10 µM 502713: 80% | inhibition at 10 µM (SiHa): 70% | inhibition at 1 µM (A549; 1 μM): 27% | inhibition at 10 µM (A549; 10 μM): 27% | inhibition at 1 µM (DU145; 1 μM): 58% | inhibition at 10 µM (DU145; 10 μM): 39% | inhibition at 1 µM (IGR-OV-1): 42% | inhibition at 1 µM (PC-3): 41% | inhibition at 1 µM (Sw-620; 1 μM): 29% | inhibition at 10 µM (Sw-620; 10 μM): 70% | inhibition at 1 µM (HEP-2; 1 μM): 49% | inhibition at 10 µM (HEP-2; 10 μM): 0%
